In assay [1] the test system is human dermal fibroblast (hDF). The assay can be described thus: High-throughput proliferation screening assay of human dermal fibroblasts. Format: cell-based. Conditions: at concentration of 200 nM; 3 days of treatment; DAPI imaging. On the procedure: For the proliferation assay, human dermal fibroblast (hDF) were plated into 96 well Black/Clear bottom tissue-culture treated plates (Corning) at 1,000 cells/well in DMEM (Gibco) 15% FBS (HyClone). […] After 3 days of treatment, cells were fixed and stained with DAPI and analyzed using Roche Cellavista High-Content Imaging System (see FIG. 1).

Assay [2] concerns EGF. The assay can be described thus: High-throughput screening assay for EGF production (ELISA of hDF supernatants). Format: cell-based, human. Conditions: 3 days of treatment. On the procedure: For EGF production assay hDFs were plated into 96 well Clear tissue-culture treated plates (Falcon) at 19,000 cells/well in DMEM (Gibco) 1× N2/B27 Supplement (Invitrogen). […] After 3 days of treatment, supernatants were collected and analyzed for EGF content using EGF Human ELISA Kit (Abcam) and with BioTek Synergy 2 Multi-Detection Microplate Reader (see FIG. 1).
Background: In an ELISA, binding on a coated surface is turned into a signal by an enzyme label.

Assay [3] deals with Collagen Type 1. The assay is described as follows: High-throughput screening assay for Collagen Type 1 production (Procollagen Type 1C-Peptide EIA of hDF supernatants). In kind it is cell-based, human. Conditions: 3 days of treatment.
For assay [4], the system named is TGFβ1. The assay is described as follows: High-throughput screening assay for TGFβ1 production (ELISA of hDF supernatants). In kind it is cell-based, human. Conditions: 3 days of treatment. On the procedure:
For TGFβ1 production assay hDFs were plated into 96 well Clear tissue-culture treated plates (Falcon) at 19,000 cells/well in DMEM (Gibco) 1× N2/B27 Supplement (Invitrogen). […] After 3 days of treatment, supernatants were collected and analyzed for TGFβ1 content using TGFβ1 Human ELISA Kit (Abcam) and with BioTek Synergy 2 Multi-Detection Microplate Reader (see FIG. 1).

Assay [5] concerns FGF7. The assay is described as follows: High-throughput screening assay for FGF7 production (ELISA of hDF supernatants). Format: cell-based, human. Conditions: at concentration of 25 μM; 3 days of treatment. The method, then:
For FGF7 production assay hDFs were plated into 96 well Clear tissue-culture treated plates (Falcon) at 19,000 cells/well in DMEM (Gibco) 1× N2/B27 Supplement (Invitrogen). […] After 3 days of treatment, supernatants were collected and analyzed for FGF7 content using FGF7 Human ELISA Kit (Abcam) and with BioTek Synergy 2 Multi-Detection Microplate Reader (see FIG. 1).

Where [6] appears, read: at concentrations of 25 and 12.5 μM.

Where a name gives a salt, the structure may show the parent alone.

On to `Cl.Cl.Nc1ncnc2nc(-c3ccc(N4CCOCC4)nc3)cc(-c3cccc(Br)c3)c12` [ABT702 dihydrochloride], for which the “proliferation level in hDFs” value in assay [1] is “induced the highest proliferation level”.
For `O=C(O)c1ccc2cc(-c3ccc(O)c(C45CC6CC(CC(C6)C4)C5)c3)ccc2c1` [CD 437], the “production level of EGF in hDFs” value in assay [2] (setting [6]) was “induced the highest production level”.
In the case of `O=C(O)c1ccc(-c2ccc3cc(O)c(C45CC6CC(CC(C6)C4)C5)cc3c2)cc1` [CD 1530], the “production level of EGF in hDFs” value in assay [2] (setting [6]) is “induced the highest production level”.
Consider `CN1Cc2ccccc2[C@@H]2c3cccc4[nH]cc(c34)C[C@H]21` [CY 208-243], for which the “production level of EGF in hDFs” value in assay [2] (at concentrations of 12.5 μM) is given as “induced the highest production level”.
For `O=C1CCc2cc(OCCCCc3nnnn3C3CCCCC3)ccc2N1` [Cilostazol], in assay [3] (at concentration of 6.25 μM), the “production level of Collagen Type 1 in hDFs” value is recorded as “induced the highest production level”.
Regarding `CN1CCC[C@@H]1CCO[C@](C)(c1ccccc1)c1ccc(Cl)cc1` [Clemastine fumarate], the “production level of Collagen Type 1 in hDFs” value in assay [3] (at concentration of 780 nM) was “induced the highest production level”.
Regarding `OCCN(CCO)c1nc(N2CCCCC2)c2nc(N(CCO)CCO)nc(N3CCCCC3)c2n1` [Dipyridamole], the “production level of Collagen Type 1 in hDFs” value in assay [3] (at concentration of 390 nM) is given as “induced the highest production level”.
As for `CN1CC(=O)NC1=NC(=O)Nc1cccc(Cl)c1` [Fenobam], the “proliferation level in hDFs” value in assay [1] is “induced the highest proliferation level”.
For the compound `CS(=O)(=O)O.N=C(N)SCCc1ccc(OCc2ccc([N+](=O)[O-])cc2)cc1` [KB-R7943 mesylate], the “production level of TGFβ1 in hDFs” value in assay [4] (at concentration of 1.6 μM) was “induced the highest production level”.
`CCCCC[C@H](O)/C=C/[C@H]1[C@H](O)CC(=O)[C@@H]1C/C=C\CCCC(=O)O` [Prostaglandin E2]: in assay [5], the “production level of FGF7 in hDFs” value is “induced the highest production level”.
For the compound `CN(C)C(=O)C(=O)c1cn(C)c2cc(Cl)c(C(=O)N3CCC(Cc4ccc(F)cc4)CC3)cc12` [SX 011], the “proliferation level in hDFs” value in assay [1] was “induced the highest proliferation level”.
As to `Cc1cc(C)c(S(=O)(=O)Nc2cccc(C(F)(F)F)c2)c(C)c1` [m-3M3FBS], in assay [4] (at concentration of 24 nM), the “production level of TGFβ1 in hDFs” value is given as “induced the highest production level”.
As for PSB 06126, in assay [2] (at concentration of 12.5 (unit not given)), the “production level of EGF in hDFs” value is reported as “induced the highest production level”.
As for Proxyfan Oxalate, the “production level of TGFβ1 in hDFs” value in assay [4] (at concentration of 24 nM) is recorded as “induced the highest production level”.

For the origin of these results see patent US10335422B2, “Small molecules that promote skin regeneration” (International Stem Cell Corporation, priority 2013, dated 2019).
